pEC50, pIC50: −log10 of the molar value.
Key:
[1] = biological target: T1, human recombinant 5-lipoxygenase (Homo sapiens, UniProt P09917); test: 5-Lipoxygenase enzyme assay; format: biochemical; details: 70 μM arachidonic acid, pH 7.4, 10 minute incubation; read-out: IC50, inhibition of 5-Lipoxygenase
T1 construct: purchased Cayman 60402
T1 sequence (P09917 1-674): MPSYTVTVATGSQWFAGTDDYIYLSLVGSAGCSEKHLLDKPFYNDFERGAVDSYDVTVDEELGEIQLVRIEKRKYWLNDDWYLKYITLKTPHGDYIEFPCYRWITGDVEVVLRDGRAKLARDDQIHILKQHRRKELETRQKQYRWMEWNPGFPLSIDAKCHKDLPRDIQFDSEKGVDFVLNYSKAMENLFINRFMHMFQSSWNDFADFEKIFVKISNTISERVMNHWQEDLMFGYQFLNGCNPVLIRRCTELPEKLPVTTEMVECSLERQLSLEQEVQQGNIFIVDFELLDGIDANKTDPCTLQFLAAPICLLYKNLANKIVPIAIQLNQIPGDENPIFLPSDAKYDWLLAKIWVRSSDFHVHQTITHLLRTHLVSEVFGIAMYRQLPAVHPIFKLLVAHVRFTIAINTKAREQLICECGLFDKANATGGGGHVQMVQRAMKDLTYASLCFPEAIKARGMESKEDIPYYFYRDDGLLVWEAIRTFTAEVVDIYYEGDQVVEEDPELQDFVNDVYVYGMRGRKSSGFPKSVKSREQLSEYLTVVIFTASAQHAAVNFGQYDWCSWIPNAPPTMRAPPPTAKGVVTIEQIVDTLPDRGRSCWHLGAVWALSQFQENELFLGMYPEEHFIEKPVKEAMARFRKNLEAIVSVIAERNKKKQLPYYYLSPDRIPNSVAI
Source text: In vitro evaluation of the ability of a composition to inhibit the enzymes 5-lipoxygenase, 15-lipoxygenase, or 12/15 lipoxygenase as described in Walidge, N. B. et al Anal. Biochem., 231: 354-358 (1995) using a high throughput colorimetric method; as well as in vitro evaluation of inhibiting LTB4 is described in Examples.
This procedure was used for measuring the enzymatic activity of human recombinant 5-lipoxygenase using a colorimetric method based on the ferric oxidation of xylenol orange.
• 96 well flat bottom microfilter plates (VWR, Catalog #62402-933 9295) • Lipoxygenase screening assay buffer (Cayman, Catalog #760710) • Human recombinant 5-lipoxygenase (Cayman, Catalog #60402) • Arachidonic Acid (Sigma, Catalog #A3555) • Xylenol orange tetrasodium salt (Aldrich, Catalog #227854) • Iron (II) sulfate heptahydrate (Sigma, Catalog #F7002) • Sulfuric acid (95-98%) [18M]—Methanol Procedure
Human recombinant 5-lipoxygenase (Cayman Cat #60402) was used in this assay. The test compound and/or vehicle was added to 0.51-1 5-lipoxygenase in 50 mM Tris-HCl buffer, pH 7.4. The reaction was initiated by addition of 70 μM arachidonic acid in Tris-HCl buffer, pH 7.4, and terminated after a 10 minute incubation at room temperature by addition of FOX reagent (25 mM sulphuric acid, 100 μM xylenol orange, 100 μM iron (II) sulphate, methanol:water 9:1). The yellow color of acidified xylenol orange was converted to a blue color by the lipid hydroperoxide-mediated oxidation of Fe 2+ ions and the interaction of the resulting Fe 3+ ions with the dye. The complex was allowed to form during a 1 hour incubation at room temperature with shaking. Absorbance of the Fe 3+ complex was then measured at […] using a spectrophotometer.
Negative controls contained enzyme during the incubation step but substrate was not added until after the FOX reagent.
Compounds were screened at 5 concentrations in triplicate starting at 10 μM

[2] = system: dopaminergic neuronal cell line; test: High glutamate-induced oxidative stress assay (HGOS); format: cell-based; details: Mus musculus; 30 mM glutamate, 16 hrs; read-out: EC50, protection against HGOS cell injury and cell death
Source text: Protection against redox stress can be evaluated in cell culture using high glutamate induced oxidative stress (HGOS) in mouse dopaminergic cell lines. The cytotoxic effect of glutamate is not due to excitotoxicity, as this cell line is devoid of inotropic glutamate receptors. Rather, the glutamate-induced toxicity of dopaminergic cells is associated with an inhibition of cystine transport which subsequently leads to depletion of intracellular glutathione (GSH) levels (Murphy T. H., et al. Neuron 2, 1547-1558, 1989), activation of neuronal 12-lipoxygenase (Li, Y. et al., Neuron 19, 453-463, 1997), increased ROS production (Tan S. et al., J. Cell Biol. 141, 1423-1432, 1998) and elevated intracellular Cat^2+ (Li, Y. et al., see supra). Some molecules were measured for their ability to protect cells against glutamate-induced stress and the assay is detailed in Examples.
This procedure was used to induce high glutamate-induced oxidative stress (HGOS) in a dopaminergic neuronal cell line. Using this assay the potency and efficacy of test articles against HGOS neuronal cell injury and cell death was established in a high throughput manner.
• Dopaminergic neuronal cell lines • DMEM-No Glucose (Life Technologies Cat #11966-025) • L-glutamine (Life Technologies Cat #25030-081) • L-glutamic acid, monosodium salt (Sigma Cat #G5889) • D-glucose (Sigma Cat #G-6151) • 10×HBSS buffer (pH 7.4) (950 ml Pyrogen-free water, 2.44 g/L MgCl2.6H20, 3.73 g/L KCl, 59.58 g/L Hepes, 58.44 g/L NaCl, 1.36 g/L KH2PO4, 1.91 g/L CaCl2.2H2O and pH to […] with HCl) • Cell Tracker Green fluorescent dye (Molecular Probes, Cat #2925). Prepare a 5NM solution in pre-warmed HBSS just prior to use. • Sterile 96-well plates precoated with poly-D-lysine (Corning Catalog #3665) • 96-well deep well mother plate, DyNA Block 1000 (VWR Catalog #40002-008) Neuronal Cells
The cells were seeded into 96-well plates at a density of 2000 per well and left to grow for 72 hours in a 33° C. incubator with 5% CO2 in air atmosphere. The passage number of the cells for each assay experiment were no later than p11 in order to minimize experimental variation.
All compounds were dissolved in DMEM-No Glu containing 1 mM glucose, 30 mM glutamate and 1× Pen/Strep. DMEM-No Glu with 1 mM glucose and 1× P/S was used as the negative control, DMEM-No Glucose with 1 mM glucose, […] glutamate was used as a positive control and 100 NM Glutathione was added to the positive control as a standard. All of the procedures for this involving the making and dilution of compounds were performed using aseptic conditions and with minimal light.
The plates were removed from the incubator and examined under the microscope for morphological appearance and density. Using an aseptic technique and an 8-channel aspirator the media was carefully removed from the cells and replaced with 200 μI of 1×HBSS. This was done as quickly as possible to prevent the cells drying out. The plates were then placed in the humidified 37° C. incubators of the Biomek 2000 Side Loader. Four plates were washed at a time so as to minimize the time that the cells were sitting in 1×HBSS prior to addition of the compound test solution. Experimental Setup
The Beckman Biomek workstations were used to load the compounds and controls from the mother plates onto the cell plates that were prewashed with HBSS under sterile conditions. The plates were incubated in the upper HTS incubator at 37° C. in 5% CO2 for exactly 16 hrs. The following day, using the Beckman Biomek workstations, the plates were removed from the incubator. Using Cell Tracker Addition, the compounds were removed from the plates, washed once with […] of pre-warmed 1×HBSS and then 100 μL of 5 μM Cell Tracker Green was added to each well. The plates were incubated at 37° C. for 30 min to allow the dye to enter the cell and be cleaved by the esterases. […]

| Structure (SMILES) | pIC50 [1] | pEC50 [2] |
| --- | --- | --- |
| COc1cc(-c2c(O)c(C)c(C)c3c2CCC(C)(C)O3)cc(OC)c1OC [2,2,7,8-Tetramethyl-5-(3,4,5-trimethoxy-phenyl)-chroman-6-ol] | > 6.00 | – |
| Cc1c(C)c2c(c(-c3ccccc3)c1O)CCC(C)(C)O2 [2,2,7,8-Tetramethyl-5-phenyl-chroman-6-ol] | – | > 5.30 |
| Cc1c(C)c2c(c(-c3ccncc3)c1O)CCC(C)(C)O2 [2,2,7,8-Tetramethyl-5-pyridin-4-yl-chroman-6-ol] | – | > 5.30 |
| CCCC1=NN(C)C(=O)C1=Cc1c(O)c(C)c(C)c2c1CCC(C)(C)O2 [4-(6-Hydroxy-2,2,7,8-tetramethyl-chroman-5-ylmethylene)-2-methyl-5-propyl-2,4-dihydro-pyrazol-3-one] | – | > 5.30 |
| Cc1c(C)c2c(c(-c3ccc(Cl)cc3)c1O)CCC(C)(C)O2 [5-(4-Chloro-phenyl)-2,2,7,8-tetramethyl-chroman-6-ol] | > 6.00 | – |
| Cc1c(C)c2c(c(-c3ccc(N(C)C)cc3)c1O)CCC(C)(C)O2 [5-(4-Dimethylamino-phenyl)-2,2,7,8-tetramethyl-chroman-6-ol] | – | > 5.30 |
| Cc1c(C)c2c(c(-c3ccc(S(C)(=O)=O)cc3)c1O)CCC(C)(C)O2 [5-(4-Methanesulfonyl-phenyl)-2,2,7,8-tetramethyl-chroman-6-ol] | – | > 5.30 |
| Cc1c(C)c2c(c(-c3ccc(C(C)(C)C)cc3)c1O)CCC(C)(C)O2 [5-(4-tert-Butyl-phenyl)-2,2,7,8-tetramethyl-chroman-6-ol] | > 6.00 | – |
| Cc1c(O)cc(-c2c(O)c(C)c(C)c3c2CCC(C)(C)O3)c(O)c1C [5-(6-Hydroxy-2,2,7,8-tetramethyl-chroman-5-yl)-2,3-dimethyl-benzene-1,4-diol] | > 6.00 | – |
| COCOc1cc2c(c(C)c1C)OC(C)(CCC=C1SC(=O)NC1=O)CC2 (stereo not shown) [5-[3-(6-Methoxymethoxy-2,7,8-trimethyl-chroman-2-yl)-propylidene]-thiazolidine-2,4-dione] | – | > 5.30 |
